How the values were obtained:
[1] = test system: hyperlipoidemia model of Goldenhamsters (blood plasma TC, TG, HDL-C, LDL-C); assay: Pharmacodynamic test group 3: effects on blood lipid levels of Goldenhamsters in a hyperlipoidemia model; assay type: in vivo; settings: for LDL-C, after administration / TC, after administration / TG, after administration / HDL-C, after administration: 40 mg/kg intragastric, 1 week, high-lipid feed continued, asterisks = P vs before administration; for LDL-C, after administration / TC, after administration / TG, after administration / HDL-C, before administration / LDL-C, before administration / TC, before administration / TG, before administration / HDL-C, after administration: blood plasma, x±s; for HDL-C, before administration / LDL-C, before administration / TC, before administration / TG, before administration: baseline of the group before administration, high-lipid feed 2 weeks, 6 animals; for therapeutic effect compared with fenofibrate (conclusion from table 4): fenofibrate 40 mg/kg
From the text: (§1) Animals: 120 male Goldenhamsters, aged 8 weeks, body weight 80-100 g, provided by Vital River Laboratories, Beijing.
Kits: The kits for total cholesterol (TC), triglyceride (TG), and high density lipoprotein cholesterol (HDL-C) were provided by SYSMEX, and the kits for low density lipoprotein cholesterol (LDL-C) were provided by Shanghai Kehua Bio-engineering Co., Ltd.
(§2) Apparatus: SYSMEX Automatic Biochemistry Analyzer, Bechman centrifuge, Setoris balance.
(§3) The animals were acclimatized and fed for 1 week, ad lib, light cycle was 10 h/14 h, and then feeds with high lipid content were fed to the animals (formulation: 0.3% cholesterol, 20% palm oil, and 79.7% basic feeds). The animals were fed for 2 weeks, and were fasted at 4:00 pm of the 14th day (fasted for 16 h). At the 15th day, the animals were anaesthetized with ethyl ether, weighted, and then 0.5 ml blood was collected from vena orbitalis posterior. The blood was anticoagulated with heparin, and was centrifugated at 5000 rpm for 10 min. The blood plasma was taken, and the levels of TC, TG, HDL-C, and LDL-C in blood plasma were determined using automatic biochemistry analyzer.
(§4) During the administration, feeds with high lipid content were continuously fed to the animals. The animals were fed for 1 week, and were fasted at 4:00 pm of the 7th day. At the 8th day, the animals were anaesthetized with ethyl ether, weighted, and then 0.5 ml blood was collected from vena orbitalis posterior. The blood was anticoagulated with heparin, and was centrifugated at 5000 rpm for 10 min. The blood plasma was taken, and the levels of TC, TG, HDL-C, and LDL-C in blood plasma were determined using automatic biochemistry analyzer.
(§5) The results were represented by x±s, and t test was employed for comparing the results obtained before and after administration.

[2] = Solubility in water (remark on the test drugs); assay type: physicochemical; settings: formulated with 20% solutol
[3] = test system: hyperlipoidemia model of Goldenhamsters (blood plasma TC, HDL-C, LDL-C); assay: Pharmacological test group 2: effects on blood lipid levels of Goldenhamsters in hyperlipoidemia model; assay type: in vivo; settings: for blood lipid-regulating effects (conclusion from table 3) / therapeutic effect compared with fenofibrate (conclusion from table 3) / effect on HDL-C, in comparison with the results before administration (in words) / effect on LDL-C, in comparison with the results before administration (in words) / effect on TC, in comparison with the results before administration (in words): 40 mg/kg; for HDL-C, after administration / LDL-C, after administration / TC, after administration: 40 mg/kg intragastric, 1 week, high-lipid feed continued, asterisks = P vs before administration; for HDL-C, after administration / LDL-C, after administration / TC, after administration / HDL-C, before administration / LDL-C, before administration / TC, before administration: blood plasma, x±s; for therapeutic effect compared with fenofibrate (conclusion from table 3): fenofibrate 40 mg/kg; for effect on HDL-C, in comparison with the results before administration (in words) / effect on LDL-C, in comparison with the results before administration (in words) / effect on TC, in comparison with the results before administration (in words): t test after vs before administration; for HDL-C, before administration / LDL-C, before administration / TC, before administration: baseline of the group before administration, high-lipid feed 2 weeks, 6 animals
From the text: as §1
Kits: The kits for total cholesterol (TC) and high density lipoprotein cholesterol (HDL-C) were provided by SYSMEX, and the kits for low density lipoprotein cholesterol (LDL-C) were provided by Shanghai Kehua Bio-engineering Co., Ltd.
as §2
as §3, with “pm on” for “pm of”, “h). On” for “h). At”, “TC,” for “TC, TG,”
as §4, with “pm on” for “pm of”, “day. On” for “day. At”, “TC,” for “TC, TG,”
as §5

[4] = test system: hyperlipoidemia model of Goldenhamsters (blood plasma TC, TG, HDL-C, LDL-C); assay: Pharmacological test group 1: effects on blood lipid levels of Goldenhamsters in a hyperlipoidemia model; assay type: in vivo; settings: for HDL-C, after administration / LDL-C, after administration / TC, after administration / TG, after administration: 40 mg/kg intragastric, 1 week, high-lipid feed continued, blood plasma, x±s, asterisks = P vs before administration
From the text: Animals: 134 male Goldenhamsters, aged 8 weeks, body weight 80-100 g, provided by Vital River Laboratories, Beijing. […] Kits: The kits for total cholesterol (TC), triglyceride (TG), and high density lipoprotein cholesterol (HDL-C) were provided by SYSMEX, and the kits for low density lipoprotein cholesterol (LDL-C) were provided by Shanghai Kehua Bio-engineering Co., Ltd. Apparatus: SYSMEX Automatic Biochemistry Analyzer, Bechman centrifuge, Setoris balance. The animals were acclimatized and fed for 1 week, ad lib, light cycle was 10 h/14 h, and then feeds with high lipid content were fed to the animals (formulation: 0.3% cholesterol, 20% palm oil, and 79.7% basic feeds). The animals were fed for 10 days, and were fasted at 4:00 pm on the 10th day (fasted for 16 h). On the 11th day, the animals were anaesthetized with ethyl ether, weighted, and then 0.5 ml blood was collected from vena orbitalis posterior. The blood was anticoagulated with heparin, and was centrifugated at 5000 rpm for 10 min. The blood plasma was taken, and the levels of TC, TG, HDL-C, and LDL-C in blood plasma were determined using automatic biochemistry analyzer. The animals were acclimatized and fed for 1 week, ad lib, light cycle was 10 h/14 h, and then feeds with high lipid content were fed to the animals (formulation: 0.3% cholesterol, 20% palm oil, and 79.7% basic feeds). The animals were fed for 2 weeks, and were fasted at 4:00 pm on the […] (fasted for 16 h). On the 22nd day, the animals were anaesthetized with ethyl ether, weighted, and then 0.5 ml blood was collected from vena orbitalis posterior. The blood was anticoagulated with heparin, and was centrifugated at 5000 rpm for 10 min. The blood plasma was taken, and the levels of TC, TG, HDL-C, and LDL-C in blood plasma were determined using automatic biochemistry analyzer. […] During the administration, feeds with high lipid content were continuously fed to the animals. The animals were fed for 1 week, and were fasted at 4:00 pm on the 7th day. On the 8th day, the animals were anaesthetized with ethyl ether, weighted, and then 0.5 ml blood was collected from vena orbitalis posterior. The blood was anticoagulated with heparin, and was centrifugated at 5000 rpm for 10 min. The blood plasma was taken, and the levels of TC, TG, HDL-C, and LDL-C in blood plasma were determined using automatic biochemistry analyzer. The results were represented by x±s, and t test was employed for comparing the results obtained before and after administration.

[5] = 40 mg/kg, t test after vs before administration

| Structure (SMILES) | solubility in water [2] | blood lipid-regulating effects (conclusion from table 4) ([1]; 40 mg/kg) | LDL-C, after administration [1] | TC, after administration [1] | TG, after administration [1] | effect on LDL-C, in comparison with the results before administration (in words) [1, 5] | effect on TG, in comparison with the results before administration (in words) [1, 5] | HDL-C, before administration [1] | LDL-C, before administration [1] | TC, before administration [1] | TG, before administration [1] | blood lipid-regulating effects (conclusion from table 3) [3] | HDL-C, after administration [3] | LDL-C, after administration [3] | TC, after administration [3] | therapeutic effect compared with fenofibrate (conclusion from table 3) [3] | effect on HDL-C, in comparison with the results before administration (in words) [3] | effect on LDL-C, in comparison with the results before administration (in words) [3] | effect on TC, in comparison with the results before administration (in words) [3] | HDL-C, before administration [3] | also measured |
| --- | --- | --- | --- | --- | --- | --- | --- | --- | --- | --- | --- | --- | --- | --- | --- | --- | --- | --- | --- | --- | --- |
| CC(C)OC(=O)C(C)(C)Oc1ccc(C(F)(F)c2ccccc2Cl)cc1 [HS003-014, Isopropyl 2-(4-((2-chlorophenyl)difluoromethyl)phenoxy)-2-methylpropionate] | insoluble |  |  |  |  |  |  |  |  |  |  | excellent blood lipid-regulating effects | 1.82 ± 0.18 | 1.39 ± 0.51 | 9.51 ± 1 | outstanding therapeutic effects, and are superior to fenofibrate | increases | significantly decreases | significantly decreases | 1.57 ± 0.16 | LDL-C, before administration [3]: 3.36 ± 1.19; TC, before administration [3]: 13.97 ± 2.27; regulating effects on the levels of blood lipid (conclusion from table 2) ([4]; 40 mg/kg): tend to the effects of significantly decreasing TG, TC, and LDL-C; HDL-C, after administration [4]: 3.55 ± 0.4; LDL-C, after administration [4]: 0.75 ± 0.17; TC, after administration [4]: 8.20 ± 0.91; TG, after administration [4]: 0.92 ± 0.25; therapeutic effect compared with fenofibrate (conclusion from table 2) ([4]; 40 mg/kg, fenofibrate 40 mg/kg): outstanding therapeutical effects, and is significantly superior to fenofibrate; effect on LDL-C, in comparison with the results before administration (in words) [4, 5]: significantly decreases; effect on TC, in comparison with the results before administration (in words) [4, 5]: significantly decreases; effect on TG, in comparison with the results before administration (in words) [4, 5]: significantly decreases |
| CCOC(=O)C(CC)Oc1ccc(C(F)(F)c2ccc(Cl)cc2)cc1 (stereo not drawn) [HS003-023, Ethyl 2-(4-((4-chlorophenyl)difluoromethyl)phenoxy)butyrate] | insoluble | excellent blood lipid-regulating effects | 2.26 ± 0.38 | 8.49 ± 1.08 | 2.40 ± 0.35 | significantly decreases | significantly decreases | 2.76 ± 0.28 | 2.86 ± 0.63 | 12.39 ± 2.38 | 3.91 ± 1.07 |  |  |  |  |  |  |  |  |  | HDL-C, after administration [1]: 2.88 ± 0.22; therapeutic effect compared with fenofibrate (conclusion from table 4) ([1]; 40 mg/kg): outstanding therapeutic effects, and are superior to fenofibrate; effect on TC, in comparison with the results before administration (in words) [1, 5]: significantly decreases |
| CC(C)OC(=O)C(C)(C)Oc1ccc(C(F)(F)c2ccc(Cl)cc2)cc1Cl [HS003-020, Isopropyl 2-(4-((4-chlorophenyl)difluoromethyl)-2-chlorophenoxy)-2-methylpropionate] | insoluble |  |  |  |  |  |  |  |  |  |  | excellent blood lipid-regulating effects | 1.84 ± 0.14 | 1.42 ± 0.39 | 10.34 ± 1.17 | outstanding therapeutic effects, and are superior to fenofibrate | significantly increases | significantly decreases | significantly decreases | 1.45 ± 0.2 | LDL-C, before administration [3]: 3.94 ± 1.41; TC, before administration [3]: 14.06 ± 2.17; regulating effects on the levels of blood lipid (conclusion from table 2) ([4]; 40 mg/kg): tend to the effects of significantly decreasing TG, TC, and LDL-C; HDL-C, after administration [4]: 4.18 ± 0.07; LDL-C, after administration [4]: 1.0 ± 0.35; TC, after administration [4]: 8.88 ± 0.44; TG, after administration [4]: 1.19 ± 0.49; effect on HDL-C, in comparison with the results before administration (in words) [4, 5]: increase; effect on LDL-C, in comparison with the results before administration (in words) [4, 5]: significantly decreases; effect on TG, in comparison with the results before administration (in words) [4, 5]: significantly decreases |

More lines, main results first:

| solubility in water [2] | Structure (SMILES) | blood lipid-regulating effects (conclusion from table 4) ([1]; 40 mg/kg) | LDL-C, after administration [1] | TC, after administration [1] | TG, after administration [1] | effect on LDL-C, in comparison with the results before administration (in words) [1, 5] | effect on TG, in comparison with the results before administration (in words) [1, 5] | HDL-C, before administration [1] | LDL-C, before administration [1] | TC, before administration [1] | TG, before administration [1] | blood lipid-regulating effects (conclusion from table 3) [3] | HDL-C, after administration [3] | LDL-C, after administration [3] | TC, after administration [3] | therapeutic effect compared with fenofibrate (conclusion from table 3) [3] | effect on HDL-C, in comparison with the results before administration (in words) [3] | effect on LDL-C, in comparison with the results before administration (in words) [3] | effect on TC, in comparison with the results before administration (in words) [3] | HDL-C, before administration [3] | also measured |
| --- | --- | --- | --- | --- | --- | --- | --- | --- | --- | --- | --- | --- | --- | --- | --- | --- | --- | --- | --- | --- | --- |
| insoluble | COC(=O)C(CCO)Oc1ccc(C(F)(F)c2ccc(Cl)cc2)cc1 (stereo not drawn) [HS003-031, methyl 2-(4-((4-chlorophenyl)difluoromethyl)phenoxy)-4-hydroxy-butyrate] | excellent blood lipid-regulating effects | 1.94 ± 0.42 | 11.44 ± 1.05 | 1.89 ± 0.38 | significantly decreases | significantly decreases | 2.82 ± 0.34 | 3.2 ± 0.83 | 12.61 ± 1.66 | 4.02 ± 1.33 |  |  |  |  |  |  |  |  |  | effect on HDL-C, in comparison with the results before administration (in words) [1, 5]: significantly increases |
| insoluble | COC(=O)C(C)Oc1ccc(C(F)(F)c2ccc(Cl)cc2)cc1 (stereo not drawn) [HS003-024, Methyl 2-(4-((4-chlorophenyl)difluoromethyl)phenoxy) propionate] | excellent blood lipid-regulating effects | 1.64 ± 0.27 | 7.64 ± 0.46 | 1.92 ± 0.38 | significantly decreases | significantly decreases | 2.76 ± 0.42 | 2.97 ± 0.98 | 12.47 ± 1.85 | 3.96 ± 1.15 |  |  |  |  |  |  |  |  |  | HDL-C, after administration [1]: 2.94 ± 0.41; therapeutic effect compared with fenofibrate (conclusion from table 4) ([1]; 40 mg/kg): outstanding therapeutic effects, and are superior to fenofibrate; effect on TC, in comparison with the results before administration (in words) [1, 5]: significantly decreases |

— patent publication US9487470B2, “4-((substituted phenyl) difluoromethyl) phenoxy carboxylic acid derivative, and preparation method and uses thereof” (Zhejiang Hisun Pharmaceutical Co., Ltd., priority 2012, dated 2016)
